According to patent US5302604A, “Cholesterol lowering compounds produced by directed biosynthesis” (Merck & Co., Inc., priority 1992, dated 1994):

Biological target: T1, Squalene Synthetase (Rattus norvegicus, UniProt Q02769)
T1 construct: from tissue; host or cells: liver microsomes (100,000×g pellet) of male Charles River CD rats fed 0.1% lovastatin for 4 days
T1 sequence (Q02769 1-416): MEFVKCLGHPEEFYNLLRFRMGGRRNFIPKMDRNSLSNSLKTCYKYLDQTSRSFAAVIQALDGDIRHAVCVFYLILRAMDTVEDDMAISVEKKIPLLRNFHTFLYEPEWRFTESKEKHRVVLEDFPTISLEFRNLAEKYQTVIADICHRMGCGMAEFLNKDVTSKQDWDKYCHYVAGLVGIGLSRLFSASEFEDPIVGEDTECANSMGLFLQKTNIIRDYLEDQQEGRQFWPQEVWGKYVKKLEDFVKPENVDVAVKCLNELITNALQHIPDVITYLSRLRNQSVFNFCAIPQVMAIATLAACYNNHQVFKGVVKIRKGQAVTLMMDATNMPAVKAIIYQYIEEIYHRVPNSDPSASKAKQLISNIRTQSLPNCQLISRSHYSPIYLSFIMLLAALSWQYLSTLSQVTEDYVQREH
Test: Squalene synthetase assay (in vitro inhibition, conversion of [4-^14 C]farnesyl-pyrophosphate)
Format: biochemical
Details: rat liver microsomes, 30° C., 20 minutes
Method: The intrinsic squalene synthetase inhibitory activity of representative compounds of this invention was measured by the standard in vitro protocol described below:
PREPARATION OF RAT LIVER MICROSOMES
Male, Charles River CD rats (120 to 150 g) were fed a diet containing 0.1% lovastatin for 4 days. The livers from these rats were homogenized in 5 volumes (mL/g) of ice cold 50 mM HEPES (4-(2-hydroxyethyl)-1-piperazine-ethanesulfonic acid), 5 mM EDTA (ethylenediaminetetraacetic acid) pH 7.5 with a Potter-Elvehjem type tissue grinder. The homogenate was centrifuged twice at 20,000×g for 15 min. at 4° C., discarding the pellet each time. The supernatant was then centrifuged at 100,000×g for 1 hr at 4° C. The resulting microsomal pellet was resuspended in a volume of the above homogenizing buffer equal to one-fifth the volume of the original homogenate. This microsomal preparation has a protein concentration of about 7 mg/mL. The microsomal suspensions were stored in aliquots at -70° C. Squalene synthetase activity in these aliquots is stable for a least several months.
Partial Purification of Prenyl Transferase
Prenyl transferase was purified to use in the enzymatic synthesis of radiolabelled farnesyl pyrophosphate. […]

- IC50: 0.201 nM
Compound: C=C(CCC12OC(C(=O)O)C(O)(C(=O)O)C(C(=O)O)(O1)C(OC(=O)/C=C/C(C)CC(C)CC)C2O)C(OC(C)=O)C(C)Cc1ccsc1 (stereo not shown)
